Measured values as given in patent US20220089638A1, “DITHIOCARBAMATE STAPLED PEPTIDES AND METHODS OF MAKING AND USE THEREOF” (UNIVERSITY OF MARYLAND, BALTIMORE, priority 2019, published 2022).
Where a SMILES comes first, the peptide text is derived from it. Bridges are numbered along the chain shown (N, C = ends). [ ]: non-standard residue; d: D form. S5 = C=CCCC[C@](C)(N)C(=O)O

Columns and labels:
HCT116 p53^−/− cells = assay: Cell apoptosis assay (annexin V-FITC/PI flow cytometry), HCT116 p53-/-; assay type: cell-based, human; settings: identical treatment conditions, 10, 20, or 30 μM
Method: (§1) Cell Apoptosis Assay. […] No treatment controls were established. Culture medium that may contain detached cells was collected, and attached cells were trypsinized. After centrifugation and removal of the supernatants, cells were resuspended in 300 μL of 1×binding buffer which was then added to 5 μL of annexin V-FITC and incubated at room temperature for 15 min. After addition of 10 μL of PI, the cells were incubated at room temperature for another 10 min in the dark. The stained cells were analyzed by a flow cytometer (BD-FACSVerse).

[1] = system: p53, MDM2 and p21 in HCT116 p53^+/+ cells; assay: Western blot analysis of MDM2, p21 and p53 expression; assay type: cell-based, human; settings: 8 h after treatment, 10, 20, 30 μM
Method: Western Blot Analysis. […] The cells were lysed (20 mM Tris-HCl pH 8.0, 0.8% SDS, 1 mM PMSF, 1 U mL^−1 benzonase nuclease) and the crude lysates were clarified by brief centrifugation and total protein concentration was determined by using the Pierce BCA protein assay. Aliquots containing 5 μg of total protein were run on 4-12% Bis-Tris polyacrylamide gels (Invitrogen).

[2] = Circular dichroism spectroscopy, percent α-helix; assay type: physicochemical; settings: CD spectroscopy
Description: Circular Dichroism (CD) Spectroscopy.

HCT116 p53^−/− = assay: Cell viability assay (CCK8), HCT116 p53-/-; assay type: cell-based, human; settings: 100 μM
Method: Cell Viability Assay. […] The absorbance at 450 nm was then measured followed by the addition of CCK8 kit, and percent cell viability was calculated on the ratio of the A450 of sample wells versus reference wells.

HCT116 p53^+/+ cells [3] = assay: Cell apoptosis assay (annexin V-FITC/PI flow cytometry), HCT116 p53+/+; assay type: cell-based, human; settings: 10, 20, or 30 μM
Method: as §1

HCT116 p53^+/+ cells [4] = assay: Cellular uptake by confocal microscopy; assay type: cell-based, human; settings: FITC-labeled peptide, 20 μM, 4 h
Method: Cellular uptake of ^DTCPMI. […] Cells were then incubated with 20 μM FITC-^DTCPMI Ctrl. or FITC-^DTCPMI for 4 h. Cells were washed with Dulbecco's phosphate buffered saline, fixed with 4% (wt/vol) paraformaldehyde, finally incubated by DAPI to stain the cell nucleus. Imaged using an LSM 510 Zeiss Axiovert 200M (v4.0) confocal microscope. Images were analyzed using an LSM image browser.

[5] = Comparison of solubility between DTC and hydrocarbon link (OD 600 nm in PBS); assay type: physicochemical; settings: PBS buffer, 2-fold serial dilution from 20 mg/ml, OD at 600 nm
Method: Comparison of Solubility between DTC and Hydrocarbon link. […] OD values were measured at 600 nm on a Biotech Synergy 4 plate reader. PBS was set as blank control.

α-helix (%) ([2]; Table 3)	α-helix (%) ([2]; Table 7)	solubility [5]	Structure (SMILES)	apoptosis of HCT116 p53-/- cells (FACS) (HCT116 p53^−/− cells)	induction of p53, MDM2 and p21 (Western blotting) [1]	cell viability of HCT116 p53-/- cells at high concentration (HCT116 p53^−/−)	induction of apoptosis of HCT116 p53+/+ cells (FACS) (HCT116 p53^+/+ cells [3])	intracellular localization / cellular uptake (confocal microscopy) (HCT116 p53^+/+ cells [4])
76%	62.2%	–	CC(=O)N[C@H](C(=O)N[C@@H](CO)C(=O)N[C@@H](Cc1ccccc1)C(=O)N[C@H]1CCCCNC(=S)SC[C@@H](C(=O)N[C@@H](CC(C)C)C(=O)N[C@@H](CC(C)C)C(=O)N[C@@H](CO)C(=O)N[C@@H](CCCNC(=N)N)C(N)=O)NC(=O)[C@H](Cc2c[nH]c3ccccc23)NC(=O)[C@H](Cc2ccc(O)cc2)NC(=O)[C@H](CCC(N)=O)NC1=O)[C@@H](C)O [^DTCPMI]	no obvious apoptosis	dose-dependent induction of p53, MDM2 and p21	significantly reduced cell viability	dose-dependent induction of apoptosis	diffused intracellular localization, demonstrating efficient cellular uptake
–	–	≥ 300 µg/mL	CC(=O)N[C@H](C(=O)N[C@@H](CO)C(=O)N[C@@H](Cc1ccccc1)C(=O)N[C@@]1(C)CCCC=CCCC[C@@](C)(C(=O)N[C@@H](CC(C)C)C(=O)N[C@@H](CC(C)C)C(=O)N[C@@H](CO)C(=O)N[C@@H](CCCNC(=N)N)C(N)=O)NC(=O)[C@H](Cc2c[nH]c3ccccc23)NC(=O)[C@H](Cc2ccc(O)cc2)NC(=O)[C@H](CCC(N)=O)NC1=O)[C@@H](C)O [^HCPMI] (Ac-TSF[S5]QYW[S5]LLSR-NH2; staple 4-8)	–	–	–	–	–
